Test results reported in article PMC5397431, “Multigeneration toxicity of imidacloprid and thiacloprid to Folsomia candida” (Ecotoxicology (London, England), 2017).
Where “and” joins values, the source holds several entries; their conditions need not be identical. Equal values may be shown once. Read-outs that look alike come from different tables or passages of the source.

Experiments:
[1] = test system: Folsomia candida; settings: 28 days, LUFA 2.2 soil
Procedure: Tests were performed in 100 ml glass jars, containing c. 30 g moist soil, using five replicate test jars for each exposure concentration. Each jar received ten 10–12 day old animals from age-synchronized cultures, after checking their health under a binocular microscope. The animals were fed with a few grains of dry baker’s yeast (Instant yeast from Algist Bruggeman N.V, Ghent, Belgium) weekly, in small amounts to avoid fungal growth. All incubations took place at 20 ± 2 °C at 75% Relative Humidity and a photoperiod of 16:8 dark: light hours. Test jars were weighed at the start, so that water loss could be monitored on a weekly basis and replenished with deionized water if needed. After exposure, all animals were extracted by flotation and pictures were taken to enable counting the number of surviving adults and juveniles produced using the software package ImageJ with a Cell Counter extension.
If no proper fit was obtained, LC50 values were calculated using the trimmed Spearman-Karber method (Hamilton et al. [1977]/78). No observed effect concentrations (NOEC) were determined applying a one-way ANOVA followed by a one-sided Dunnett’s post hoc test at a significance level of p < 0.05. All statistical analysis, except for the Trimmed Spearman Karber method, were run in SPSS 23.

[2] = test system: Folsomia candida; settings: cited from earlier work
[3] = test system: Folsomia candida; assay: Multigeneration toxicity test (survival and reproduction) with springtails in spiked LUFA 2.2 soil; assay type: in vivo; settings: for EC10 / EC50: number of juveniles
Procedure: F. candida were taken from cultures at the Department of Ecological Science at the Vrije Universiteit in Amsterdam. To obtain age-synchronized animals, adults from the culture were separated in boxes with a layer of plaster of Paris over a period of 2–3 days to lay eggs, after which they were removed. After removal of the adults, the eggs were incubated under a 12 h light/12 h dark regime at 20 °C and 75% relative humidity, where they hatched and grew. Juveniles of 10–12 days old were used for testing.
All tests were performed in the natural standard LUFA 2.2 (Lufa Speyer, Germany), a loamy sand with 1.59 ± 0.13% organic carbon, pH in 0.01 M CaCl2 of 5.4 ± 0.2, and water holding capacity (WHC) of 43.5 ± 2.8% of its dry weight.
Pure imidacloprid and thiacloprid (purity 98%) were kindly provided by Bayer CropScience, Monheim, Germany. Test concentrations of imidacloprid and thiacloprid were based on the results of earlier tests. Stock solution of both compounds in water were prepared, to spike the chemicals into the soil and at the same time bringing moisture content to the desired level of 50% of the WHC. To ensure complete thiacloprid dissolution, a small amount of acetone was added to the stock solution. This stock solution was used to spike soil with the highest test concentration and further diluted for spiking soil with the lower concentrations tested. Considering the low amount of acetone needed to make thiacloprid completely dissolve, no attempts were made to correct for that by adding acetone to the lower concentrations and control in the multigeneration test. All soils were thoroughly mixed to achieve a homogenous distribution of the test chemicals in the test soil.
Multigeneration tests started with a control, […] imidacloprid (0, 0.001, 0.003, 0.01, 0.03, 0.1, 0.3, 1.0 mg/kg dry soil) and 9 thiacloprid concentrations (0, 0.0015, 0.0045, 0.014, 0.041, 0.11, 0.31, 1.1, 3.3, 10.0 mg/kg dry soil). Batches of soil sufficient to perform three toxicity tests were prepared. After filling test jars for the parent generation exposure, the remaining spiked soil was stored in glass jars in a climate room at 20 °C for subsequent exposure of the next two generations. Moisture content of the spiked soil was checked regularly by weighing the jars, and replenished by adding deionized water if needed.
After 28 days (35 days for the second generation), the juveniles from the same exposure concentration were pooled in the same container with a moist plaster of Paris bottom and incubated overnight before being transferred to the next cycle of exposure. This experiment spanned a total of three continuous generations (referred to as F0, F1, and F2).

[4] = Chemical analysis of concentrations in test soil (LC-MS) and degradation half-life (DT50); assay type: physicochemical; settings: for concentration, % of the nominal concentration: after 63 days
Procedure: Soil samples for chemical analysis of imidacloprid and thiacloprid in the test soil were taken at the start of the exposure of each new generation.
The analytical method to determine actual imidacloprid and thiacloprid concentrations in the test soils followed the principles of the QuEChERS extraction method modified from Anastasiades et al. ([2003]) and Payá et al. ([2007]). Briefly, the procedure used was as follows: approx. 1 g moist soil was taken for low concentration treatments (<1 mg/kg), and 50 µL internal standard (Imidacloprid-d4 and Thiacloprid-d4, 250 µg/L) was added. The sample was shaken for 20 min at 250 rpm with 2 mL methanol and centrifuged for 3 min at 1500 rpm. The methanol phase was passed through a granular Na2SO4 column, evaporated till dryness and the residue taken up in 3 mL acetonitrile. For high concentration samples (>1 mg/kg), the soil was first shaken with methanol and centrifuged. Subsequently an aliquot of 100 µL was taken and together with 50 µL internal standard (Imidacloprid-d4 and Thiacloprid-d4, 250 µg/L) added to 1 mL methanol, passed through a granular Na2SO4 column, evaporated to dryness and taken up in 3 mL acetonitrile. For clean-up, the acetonitrile extract was added to a tube filled with Supel QuE (C18 150 mg, PSA 150 mg, MgSO4 900 mg, Sigma Aldrich), shaken by hand for 2 min and centrifuged for 3 min at 3000 rpm. The supernatant was evaporated till dryness under gentle nitrogen stream and the residue taken up in 200 µL of a water-methanol (9/1) mixture.
Extracts were analyzed using LC-MS and quantified by isotope dilution (imidacloprid-d4 and thiacloprid-d4). The neonicotinoids were separated on a 100 × 2.1 mm, 2.6 µm Kinetex XB-C18 column (Phenomenex), applying a gradient of 5 mM ammonium formate pH 4 buffer and methanol, at a flow rate of 0.3 mL/min. The LC system (Agilent 1200 series) was coupled to a 6410 triple quadrupole MS (Agilent) using electrospray ionization (ESI) with data acquisition in positive ion mode. The transitions for imidacloprid were 256.1 > 175/209 (quantifier/qualifier) and for imidacloprid-d4 260 > 179. For thiacloprid the transitions were253.1 > 126/90 (quantifier/qualifier) with 257 > 126 for thiacloprid-d4.
Using data on the imidacloprid and thiacloprid concentrations measured at different times after spiking the soil in the multigeneration test, half-life (DT50) values were estimated assuming first order degradation kinetics. The equation C = C0 * e^−k*t was fitted to the data, with C = concentration at time t in days, C0 is concentration at t = 0 and k = degradation rate constant (day^−1). DT50 was derived as ln(2) / k.

[5] = cited from earlier work
[6] = number of juveniles, with 95% confidence interval
[7] = F0 generation, 28 days, LUFA 2.2 soil, nominal concentrations
[8] = F1 and F2 generations, 3.3 mg/kg dry soil
[9] = F1 generation, 35 days, soil spiked at start of F0, nominal concentrations
[10] = F2 generation, 28 days, soil spiked at start of F0, nominal concentrations
[11] = F2 generation, 28 days, soil spiked at start of F0, nominal concentrations, listed as thiacloprid
[12] = 28-day exposure, Lufa 2.2, ~3.0% OM, pure, ref De Lima e Silva et al. (submitted)

OB(O)O [Boric acid, boric acid]
NOEC [1]: 20 mg/kg dry soil | EC10 [1, 6]: 29 (25–33) mg/kg dry soil | EC50 [1, 6]: 51 (47–54) mg/kg dry soil | EC50 ([2]; OECD artificial soil, value mentioned in the test guideline, ref OECD (2009)): 100 mg/kg dry soil

N#C/N=C1\SCCN1Cc1ccc(Cl)nc1 [Thiacloprid, thiacloprid]
effect on reproduction ([3]; F0 generation, 3.3 mg/kg dry soil): significantly reduced | NOEC [3, 7]: 0.11 mg/kg dry soil | LC50 ([3]; F0 generation, 28 days, adult survival, LUFA 2.2 soil, nominal concentrations): 9.0 mg/kg dry soil | EC10 [3, 7]: 0.23 mg/kg dry soil | EC50 [3, 7]: 1.5 mg/kg dry soil | juveniles produced, on average ([3]; F0 generation, highest concentration tested 10 mg/kg dry soil): 3 per jar | effects on juvenile numbers [3, 8]: no effects | springtail reproduction affected [3, 8]: less than 50% | EC50 [3, 9]: > 3.33 mg/kg dry soil and > 3.3 mg/kg dry soil | LC50 [3, 9]: > 3.33 mg/kg dry soil and > 3.3 mg/kg dry soil | NOEC [3, 9]: ≥ 3.3 mg/kg dry soil | EC10 [3, 10]: >3.3 mg/kg dry soil | EC50 [3, 10]: >3.3 mg/kg dry soil | EC50 [3, 11]: > 3.33 mg/kg dry soil and > 3.3 mg/kg dry soil | LC50 [3, 10]: >3.3 mg/kg dry soil | LC50 [3, 11]: > 3.33 mg/kg dry soil and > 3.3 mg/kg dry soil | NOEC [3, 11]: 1.1 mg/kg dry soil | LC50, range over generations ([3]; range over the three generations, Lufa 2.2, pure compound, this study): >3.33-9.0 mg/kg dry soil | half-life ([4]; LUFA 2.2 soil (spiked natural loamy sand), pH 5.4, LUFA 2.2 soil, 20 °C, first order kinetics, read-out: DT50 (half-life) for degradation in test soil): 240 to 288 h | concentration, % of nominal ([4]; LUFA 2.2 soil, after 28 days, 1.1 and 3.3 mg/kg dry soil): 91.2–101% and 90–100% | concentration, % of the nominal values ([4]; LUFA 2.2 soil, after 63 days of incubation, all concentrations): 7.6–22.0% | concentration, % of the nominal concentration ([4]; LUFA 2.2 soil, 0.0137 mg/kg): 22.0% | concentration, % of the nominal concentration ([4]; LUFA 2.2 soil, 0.113 mg/kg): 19.8% | concentration measured in soil ([4]; T=28, nominal 1.11, mean ± SD (n=3)): 1.1±0.35 mg/kg dry soil | concentration measured in soil ([4]; T=28, nominal 3.33, mean ± SD (n=3)): 3.0±0.42 mg/kg dry soil | concentration measured in soil ([4]; T=28, nominal 10, mean ± SD (n=3)): 5.7±0.27 mg/kg dry soil | concentration measured in soil ([4]; T=63 d, nominal 0.014, mean ± SD (n=3)): 0.003±0.0002 mg/kg dry soil | concentration measured in soil ([4]; T=63 d, nominal 0.113, mean ± SD (n=3)): 0.022±0.00044 mg/kg dry soil | concentration measured in soil ([4]; T=63 d, nominal 1.11, mean ± SD (n=3)): 0.12±0.0054 mg/kg dry soil | concentration measured in soil ([4]; T=63 d, nominal 3.33, mean ± SD (n=3)): 0.26±0.0038 mg/kg dry soil | concentration measured in soil ([4]; T=63 d, nominal 10, mean ± SD (n=3)): 0.76±0.015 mg/kg dry soil | EC50 [2, 12]: 1.7-2.4 mg/kg dry soil | LC50 [2, 12]: 4.3-4.9 mg/kg dry soil | field-based half-lives ([5]; field, ref European Commission (2004)): 9 to 27 days | half-life in soil ([5]; laboratory tests, ref Goulson (2013), Bonmatin et al. (2015)): 81.6 to 1780 h | factor less persistent in soil than imidacloprid ([5]; ref Goulson (2013), Bonmatin et al. (2015)): 10
